Measurements: patent publication US20250195536A1, “BICYCLOOCTANE KRAS INHIBITORS” (Incyte Corporation, priority 2023, published 2025)

Assays:
[1] = target: KRAS G12D (Homo sapiens, UniProt P01116, G12D); assay: GDP-GTP exchange assay (KRAS G12D); assay type: biochemical; conditions: bodipy-GDP/GppNHp exchange with SOS1; 4 h pre-incubation, 2 h reaction;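 note: one dagger IC50 up to 100 nM and two daggers above 100 nM up to 1 μM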
Experimental: (§1) The inhibitor potency of the exemplified compounds was determined in a fluorescence based guanine nucleotide exchange assay, which measures the exchange of bodipy-GDP (fluorescently labeled GDP) for GppNHp (Non-hydrolyzable GTP analog) to generate the active state of KRAS in the presence of SOS1 (guanine nucleotide exchange factor). Inhibitors were serially diluted in DMSO and a volume of 0.1 μL was transferred to the wells of a black low volume 384-well plate. 5 μL/well volume of bodipy-loaded KRAS G12D diluted to 2.5 nM in assay buffer (25 mM Hepes pH 7.5, 50 mM NaCl, 10 mM MgCl2 and 0.01% Brij-35) was added to the plate and pre-incubated with inhibitor for 4 h at r.t. Appropriate controls (enzyme with no inhibitor or with a G12D inhibitor) were included on the plate. The exchange was initiated by the addition of a 5 μL/well volume containing 1 mM GppNHp and 300 nM SOS1 in assay buffer. The 10 μL/well reaction concentration of the bodipy-loaded KRAS G12D, GppNHp, and SOS1 were 2.5 nM, 500 μM, and 150 nM, respectively. The reaction plates were incubated at r.t. for 2 h, a time estimated for complete GDP-GTP exchange in the absence of inhibitor. For the KRAS G12V mutant, similar guanine nucleotide exchange assays were used with 2.5 nM as final concentration for the bodipy loaded KRAS proteins and 3 h incubation after adding GppNHp-SOS1 mixture. A cyclic peptide described to selectively bind G12D mutant (Sakamoto et al., BBRC 484.3 (2017), 605-611) or internal compounds with confirmed binding were used as positive controls in the assay plates. Fluorescence intensities were measured on a PheraStar plate reader instrument (BMG Labtech) with excitation at 485 nm and emission at 520 nm.
(§2) Either GraphPad prism or Genedata Screener SmartFit was used to analyze the data. The IC50 values were derived by fitting the data to a four parameter logistic equation producing a sigmoidal dose-response curve with a variable Hill coefficient.
(§3) The symbol “⬆” indicates IC50 100 nM, “⬆⬆” indicates IC50 >100 nM but ≤1 μM; and “⬆⬆⬆” indicates IC50 is >1 μM but ≤5 μM, “⬆⬆⬆⬆” indicates IC50 is >5 μM but ≤10 μM. “NA” indicates IC50 not available.

[2] = target: KRAS G12V (Homo sapiens, UniProt P01116, G12V); assay: GDP-GTP exchange assay (KRAS G12V); assay type: biochemical; conditions: bodipy-GDP/GppNHp exchange with SOS1; 3 h incubation after GppNHp-SOS1;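 note: one dagger IC50 up to 100 nM and two daggers above 100 nM up to 1 μM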
Sequence of KRAS G12V (P01116 1-188 isoform P01116-2 G12V): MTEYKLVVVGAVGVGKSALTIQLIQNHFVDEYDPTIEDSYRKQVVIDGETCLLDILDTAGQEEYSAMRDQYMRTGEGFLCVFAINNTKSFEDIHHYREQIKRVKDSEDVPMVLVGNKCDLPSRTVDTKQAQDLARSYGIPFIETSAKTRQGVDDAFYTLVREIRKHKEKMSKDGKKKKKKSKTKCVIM
Experimental: as §1, §2, §3

[3] = Caco2 assay (permeability, Papp A-B); assay type: in vitro ADME; conditions: human, Caco-2, absorptive direction (A-B), 50 μM test compound, 4% BSA in receiver
Experimental: Caco-2 cells are grown at 37° C. in an atmosphere of 5% CO2 in DMEM growth medium supplemented with 10% (v/v) fetal bovine serum, 1% (v/v) nonessential amino acids, penicillin (100 U/mL), and streptomycin (100 μg/mL). Confluent cell monolayers are subcultured every 7 days or 4 days for Caco-2 by treatment with 0.05% trypsin containing […]. Caco-2 cells are seeded in 96-well Transwell plates. The seeding density for Caco-2 cells is 14,000 cells/well. DMEM growth medium is replaced every other day after seeding. Cell monolayers are used for transport assays between 22 and 25 days for Caco-2 cells.
Cell culture medium is removed and replaced with HBSS. To measure the TEER, the HBSS is added into the donor compartment (apical side) and receiver compartment (basolateral side). The TEER is measured by using a REMS Autosampler to ensure the integrity of the cell monolayers. Caco-2 cell monolayers with TEER values 300 Ω·cm^2 are used for transport experiments. To determine the Papp in the absorptive direction (A-B), solution of test compound (50 μM) in HBSS is added to the donor compartment (apical side), while HBSS solution with 4% BSA is added to the receiver compartment (basolateral side). The apical volume was 0.075 mL, and the basolateral volume is 0.25 mL. The incubation period is 120 min. at 37° C. in an atmosphere of 5% CO2. At the end of the incubation period, samples from the donor and receiver sides are removed and an equal volume of MeCN is added for protein precipitation. The supernatants are collected after centrifugation (3000 rpm, Allegra X-14R Centrifuge from Beckman Coulter, Indianapolis, IN) for LCMS analysis. The permeability value is determined according to the equation:
Papp(cm/s)=(F*VD)/(SA*MD),
where the flux rate (F, mass/time) is calc. from the slope of cumulative amounts of compound of interest on the receiver side, SA is the surface area of the cell membrane, VD is the donor volume, and MD is the initial amount of the solution in the donor chamber.
The symbol “+” indicates a Caco-2 value of ≤0.5, “++” indicates a Caco-2 value of >0.5 but ≤1; and “+++” indicates a Caco-2 value of >1. “NA” indicates Caco-2 value not available.

Sequence of KRAS G12D (P01116 1-188 isoform P01116-2 G12D): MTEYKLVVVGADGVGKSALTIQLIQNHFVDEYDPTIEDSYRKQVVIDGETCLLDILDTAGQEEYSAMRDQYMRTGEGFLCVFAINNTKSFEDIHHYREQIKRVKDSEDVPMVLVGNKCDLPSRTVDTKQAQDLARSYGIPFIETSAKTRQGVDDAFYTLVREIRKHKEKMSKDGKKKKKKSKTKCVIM

Row | SMILES | G12D_exchange (KRAS_G12D exchange assay IC50) [1] | G12V_exchange (KRAS_G12V exchange assay IC50) [2] | Papp A→B at 120 min, 50 μM [3] [×10⁻⁶ cm/s]
1 | Cc1cnc(N2C[C@@H]3C[C@H](C2)N(C(=O)C2CC2)[C@H]3c2cc3c(C)nc4c(F)c(-c5cccc(Cl)c5Cl)c(CCC#N)cc4c3n2[C@H]2[C@H]3CN[C@@H]2C3)s1 (atropisomer, axis not shown; (Ra)) [Example 91, 3-((Ra)-1-((1R,4R,5S)-2-azabicyclo[2.1.1]hexan-5-yl)-2-((1S,5R,7R)-6-(cyclopropanecarbonyl)-3-(5-methylthiazol-2-yl)-3,6-diazabicyclo[3.2.1]octan-7-yl)-7-(2,3-dichlorophenyl)-6-fluoro-4-methyl-1H-pyrrolo[3,2-c]quinolin-8-yl)propanenitrile] | † | † | ≤ 0.5
2 | Cc1nc2c(F)c(-c3cccc(Cl)c3Cl)c(CCC#N)cc2c2c1cc([C@H]1[C@H]3C[C@H](CN(c4ccnc(C(C)(C)O)c4)C3)N1C(=O)C1CC1)n2[C@H]1[C@H]2CN[C@@H]1C2 (atropisomer, axis not shown; (Ra)) [Example 62, 3-((Ra)-1-((1R,4R,5S)-2-azabicyclo[2.1.1]hexan-5-yl)-2-((1S,5R,7R)-6-(cyclopropanecarbonyl)-3-(2-(2-hydroxypropan-2-yl)pyridin-4-yl)-3,6-diazabicyclo[3.2.1]octan-7-yl)-7-(2,3-dichlorophenyl)-6-fluoro-4-methyl-1H-pyrrolo[3,2-c]quinolin-8-yl)propanenitrile] | † | † | ≤ 0.5
3 | Cc1nc2c(F)c(-c3cccc(Cl)c3Cl)c(CCC#N)cc2c2c1cc([C@H]1[C@H]3C[C@H](CN(c4cc(C(C)(F)F)ncn4)C3)N1C(=O)C1(F)CC1)n2[C@H]1[C@H]2CN[C@@H]1C2 (atropisomer, axis not shown; (Ra)) [Example 128, 3-((Ra)-1-((1R,4R,5S)-2-azabicyclo[2.1.1]hexan-5-yl)-7-(2,3-dichlorophenyl)-2-((1S,5R,7R)-3-(6-(1,1-difluoroethyl)pyrimidin-4-yl)-6-(1-fluorocyclopropane-1-carbonyl)-3,6-diazabicyclo[3.2.1]octan-7-yl)-6-fluoro-4-methyl-1H-pyrrolo[3,2-c]quinolin-8-yl)propanenitrile] |  | † | ≤ 0.5
4 | COC(=O)N1[C@@H]2C[C@@H](CN(c3cnc(C#N)cn3)C2)[C@@H]1c1cc2c(C)nc3c(F)c(-c4cccc(Cl)c4Cl)c(CCC#N)cc3c2n1[C@H]1[C@H]2CN[C@@H]1C2 (atropisomer, axis not shown; (Ra)) [Example 127, Methyl (1 S,5R,7R)-7-((Ra)-1-((1R,4R,5S)-2-azabicyclo[2.1.1]hexan-5-yl)-8-(2-cyanoethyl)-7-(2,3-dichlorophenyl)-6-fluoro-4-methyl-1H-pyrrolo[3,2-c]quinolin-2-yl)-3-(5-cyanopyrazin-2-yl)-3,6-diazabicyclo[3.2.1]octane-6-carboxylate] |  | † | ≤ 0.5
5 | COC(=O)N1[C@@H]2C[C@@H](CN(c3ncc(OCC4CC4)cn3)C2)[C@@H]1c1cc2c(C)nc3c(F)c(-c4cccc(Cl)c4Cl)c(CCC#N)cc3c2n1[C@H]1[C@H]2CN[C@@H]1C2 (atropisomer, axis not shown; (Ra)) [Example 126, Methyl (1 S,5R,7R)-7-((Ra)-1-((1R,4R,5S)-2-azabicyclo[2.1.1]hexan-5-yl)-8-(2-cyanoethyl)-7-(2,3-dichlorophenyl)-6-fluoro-4-methyl-1H-pyrrolo[3,2-c]quinolin-2-yl)-3-(5-(cyclopropylmethoxy)pyrimidin-2-yl)-3,6-diazabicyclo[3.2.1]octane-6-carboxylate] |  | † | ≤ 0.5
6 | COC(=O)N1[C@@H]2C[C@@H](CN(c3nccnc3OC)C2)[C@@H]1c1cc2c(C)nc3c(F)c(-c4cccc(Cl)c4Cl)c(CCC#N)cc3c2n1[C@H]1[C@H]2CN[C@@H]1C2 (atropisomer, axis not shown; (Ra)) [Example 125, Methyl (1 S,5R,7R)-7-((Ra)-1-((1R,4R,5S)-2-azabicyclo[2.1.1]hexan-5-yl)-8-(2-cyanoethyl)-7-(2,3-dichlorophenyl)-6-fluoro-4-methyl-1H-pyrrolo[3,2-c]quinolin-2-yl)-3-(3-methoxypyrazin-2-yl)-3,6-diazabicyclo[3.2.1]octane-6-carboxylate] |  | † | > 1

The next lines start with the values.

Row | G12D_exchange (KRAS_G12D exchange assay IC50) [1] | G12V_exchange (KRAS_G12V exchange assay IC50) [2] | Papp A→B at 120 min, 50 μM [3] [×10⁻⁶ cm/s] | SMILES
7 | † | † | ≤ 0.5 | Cc1nc2c(F)c(-c3cccc(Cl)c3Cl)c(CCC#N)cc2c2c1cc([C@H]1[C@H]3C[C@H](CN(c4ccn5nccc5c4)C3)N1C(=O)C1CC1)n2[C@H]1[C@H]2CN[C@@H]1C2 (atropisomer, axis not shown; (Ra)) [Example 71, 3-((Ra)-1-((1R,4R,5S)-2-azabicyclo[2.1.1]hexan-5-yl)-2-((1S,5R,7R)-6-(cyclopropanecarbonyl)-3-(pyrazolo[1,5-a]pyridin-5-yl)-3,6-diazabicyclo[3.2.1]octan-7-yl)-7-(2,3-dichlorophenyl)-6-fluoro-4-methyl-1H-pyrrolo[3,2-c]quinolin-8-yl)propanenitrile]
8 | † | † | ≤ 0.5 | Cc1nc2c(F)c(-c3cccc(Cl)c3Cl)c(CCC#N)cc2c2c1cc([C@H]1C[C@H]3C[C@H](CN3c3ccccn3)N1C(=O)C1CC1)n2[C@H]1[C@H]2CN[C@@H]1C2 (atropisomer, axis not shown; (Ra)) [Example 118, 3-((Ra)-1-((1R,4R,5S)-2-Azabicyclo[2.1.1]hexan-5-yl)-2-((1R,3R,5R)-2-(cyclopropanecarbonyl)-6-(pyridin-2-yl)-2,6-diazabicyclo[3.2.1]octan-3-yl)-7-(2,3-dichlorophenyl)-6-fluoro-4-methyl-1H-pyrrolo[3,2-c]quinolin-8-yl)propanenitrile]
9 | † | † | ≤ 0.5 | Cc1nc2c(F)c(-c3cccc(Cl)c3Cl)c(CCC#N)cc2c2c1cc([C@H]1[C@H]3C[C@H](CN(c4ncnn4C)C3)N1C(=O)C1CC1)n2[C@H]1[C@H]2CN[C@@H]1C2 (atropisomer, axis not shown; (Ra)) [Example 92, 3-((Ra)-1-((1R,4R,5S)-2-azabicyclo[2.1.1]hexan-5-yl)-2-((1S,5R,7R)-6-(cyclopropanecarbonyl)-3-(1-methyl-1H-1,2,4-triazol-5-yl)-3,6-diazabicyclo[3.2.1]octan-7-yl)-7-(2,3-dichlorophenyl)-6-fluoro-4-methyl-1H-pyrrolo[3,2-c]quinolin-8-yl)propanenitrile]
